# Experimental data from patent publication US10155741B2, “Pyridine or pyrimidine derivatives” (Hoffmann-La Roche Inc., priority 2015, dated 2018).
# Molecular target: T1, human EAAT3 (Homo sapiens, UniProt P43005)
# T1 construct: expressed in transfected cells
# T1 sequence (P43005 1-524): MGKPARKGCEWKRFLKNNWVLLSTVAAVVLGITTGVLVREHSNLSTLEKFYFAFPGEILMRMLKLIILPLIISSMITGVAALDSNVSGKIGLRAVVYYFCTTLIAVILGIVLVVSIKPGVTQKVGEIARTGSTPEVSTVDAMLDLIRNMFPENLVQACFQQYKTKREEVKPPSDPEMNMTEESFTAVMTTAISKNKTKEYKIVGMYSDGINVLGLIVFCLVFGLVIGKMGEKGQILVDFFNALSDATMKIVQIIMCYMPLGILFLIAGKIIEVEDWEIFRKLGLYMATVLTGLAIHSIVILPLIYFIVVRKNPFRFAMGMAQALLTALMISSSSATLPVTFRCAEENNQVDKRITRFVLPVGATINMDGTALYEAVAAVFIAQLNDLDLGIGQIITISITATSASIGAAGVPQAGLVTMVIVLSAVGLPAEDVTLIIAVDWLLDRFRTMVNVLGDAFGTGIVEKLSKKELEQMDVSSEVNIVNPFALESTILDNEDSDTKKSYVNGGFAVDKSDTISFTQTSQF
# Assay: FLIPR Membrane Potential (FMP) assay, antagonist potency at human EAAT3
# Type: cell-based
# Conditions: HEK-293 cells stably expressing human EAAT3; L-glutamate as agonist at EC80; antagonist applied 15 min before; Kb by Cheng-Prusoff equation
# Method: The FLIPR Membrane Potential (FMP) Assay
# HEK-293 cells stably expressing human EAAT3 were seeded at 55 000 cells/well in growth medium (DMEM glutamate free (Invitrogen 11960-044), 1% Pen Strep (10 ml/l GIBCO BRL No 15140-023), 10% FCS non dialysed heat inactivated, 5 mg/l puromycin) in poly-D-lysine treated 96-well black microtiter plates with clear-bottom. After 24 h, the growth medium was removed and 100 μl/well of Krebs buffer (140 mM NaCl, 4.7 mM KCl, 2.5 mM CaCl2, 1.2 mM MgCl2, 11 mM HEPES, 10 mM D-glucose, pH=7.4) added. The cells were then loaded by adding 100 μl/well FMP assay dye (FLIPR Membrane Potential assay reagent, Molecular Devices). The 96-well plates were then incubated at 37° C. for 1 h. The depolarization of the cells will cause more dye to enter in the cells, where it will bind to intracellular proteins and lipids and cause an increase in the fluorescence signal. Antagonist potency at human EAAT3 was determined by using L-glutamate as agonist at a concentration which gives 80% of the maximum response. The antagonists were applied 15 min before the application of the agonist L-glutamate. The assays were performed at room temperature and measurements done by using a Fluorometric Imaging Plate Reader (FLIPR, Molecular Devices) and filter #2. Responses were measured as peak increase in fluorescence minus basal (i.e. fluorescence without addition of L-glutamate). Kb was determined using the Cheng-Prusoff equation Kb=IC50/[1+(A/EC50)], where IC50 is the concentration of the antagonist producing 50% inhibition, A is the concentration of the agonist against which the IC50 is being determined (at EC80) and EC50 is the concentration of the agonist producing 50% […].
row,Compound,Kb [nM]
1,"CC(C)c1ncncc1-c1cc(C(=O)NC2(C)CCS(=O)(=O)C2)cc(-c2ccc(F)cc2)n1 (racemic) [Example 17, (RS)-2-(4-Fluorophenyl)-N-(3-methyl-1,1-dioxothiolan-3-yl)-6-(4-propan-2-yl-pyrimidin-5-yl)-pyridine-4-carboxamide]",270
2,"CC(C)c1ncncc1-c1cc(C(=O)NC(C)(C)C)cc(-c2ccc(Cl)cc2)n1 [Example 1, N-tert-Butyl-2-(4-chlorophenyl)-6-(4-propan-2-yl-pyrimidin-5-yl)-pyridine-4-carboxamide]",100
3,"CC(C)c1ncncc1-c1cc(C(=O)NC(C)(C)C)cc(-c2ccc(F)cc2)n1 [Example 2, N-tert-Butyl-2-(4-fluorophenyl)-6-(4-propan-2-yl-pyrimidin-5-yl)-pyridine-4-carboxamide]",120
4,"CC(C)c1ncncc1-c1cc(C(=O)NC(C)(C)C)cc(-c2ccc(C(F)(F)F)cc2)n1 [Example 3, N-tert-Butyl-2-(4-propan-2-yl-pyrimidin-5-yl)-6-[4-(trifluoromethyl)-phenyl]-pyridine-4-carboxamide]",110
5,"Cc1ccncc1-c1cc(C(=O)NC(C)(C)C)cc(-c2ccc(F)cc2)n1 [Example 4, N-tert-Butyl-2-(4-fluorophenyl)-6-(4-methylpyridin-3-yl)-pyridine-4-carboxamide]",260
6,"Cc1ccncc1-c1cc(C(=O)NC(C)(C)C)cc(-c2ccc(Cl)cc2)n1 [Example 5, N-tert-Butyl-2-(4-chlorophenyl)-6-(4-methylpyridin-3-yl)-pyridine-4-carboxamide]",220
7,"Cc1ccc(-c2cc(C(=O)NC(C)(C)C)cc(-c3cncnc3C(C)C)n2)cc1 [Example 6, N-tert-Butyl-2-(4-methylphenyl)-6-(4-propan-2-yl-pyrimidin-5-yl)-pyridine-4-carboxamide]",140
8,"CC(C)c1ncncc1-c1cc(C(=O)NC(C)(C)C)cc(-c2ccc(F)c(F)c2)n1 [Example 7, N-tert-Butyl-2-(3,4-difluorophenyl)-6-(4-propan-2-yl-pyrimidin-5-yl)-pyridine-4-carboxamide]",110
9,"Cc1cc(-c2cc(C(=O)NC(C)(C)C)cc(-c3cncnc3C(C)C)n2)ccc1F [Example 8, N-tert-Butyl-2-(4-fluoro-3-methylphenyl)-6-(4-propan-2-yl-pyrimidin-5-yl)-pyridine-4-carboxamide]",260
10,"CC(C)c1ncncc1-c1cc(C(=O)NC(C)(C)C)cc(-c2ccc(Cl)c(F)c2)n1 [Example 9, N-tert-Butyl-2-(4-chloro-3-fluorophenyl)-6-(4-propan-2-yl-pyrimidin-5-yl)-pyridine-4-carboxamide]",260
11,"CC(C)c1ncncc1-c1cc(C(=O)NC(C)(C)C)cc(-c2ccc(C3CC3)cc2)n1 [Example 10, N-tert-Butyl-2-(4-cyclopropyl-phenyl)-6-(4-propan-2-yl-pyrimidin-5-yl)-pyridine-4-carboxamide]",290
12,"CC(C)c1ncncc1-c1cc(C(=O)NC(C)(C)C2CC2)cc(-c2ccc(Cl)cc2)n1 [Example 11, 2-(4-Chlorophenyl)-N-(2-cyclopropyl-propan-2-yl)-6-(4-propan-2-yl-pyrimidin-5-yl)-pyridine-4-carboxamide]",150
13,"CC(C)c1ncncc1-c1cc(C(=O)NC(C)(C)C#N)cc(-c2ccc(Cl)cc2)n1 [Example 12, 2-(4-Chlorophenyl)-N-(2-cyanopropan-2-yl)-6-(4-propan-2-yl-pyrimidin-5-yl)-pyridine-4-carboxamide]",470
14,"CC(C)c1ncncc1-c1cc(C(=O)NC(C)(C)CO)cc(-c2ccc(Cl)cc2)n1 [Example 13, 2-(4-Chlorophenyl)-N-(1-hydroxy-2-methylpropan-2-yl)-6-(4-propan-2-yl-pyrimidin-5-yl)-pyridine-4-carboxamide]",200
15,"CC(C)c1ncncc1-c1cc(C(=O)NC(C)(C)C(F)(F)F)cc(-c2ccc(Cl)cc2)n1 [Example 14, 2-(4-Chlorophenyl)-6-(4-propan-2-yl-pyrimidin-5-yl)-N-(1,1,1-trifluoro-2-methylpropan-2-yl)-pyridine-4-carboxamide]",270
16,"COc1ccc(-c2cc(C(=O)NC(C)(C)C)cc(-c3cncnc3C(C)C)n2)cc1 [Example 15, N-tert-Butyl-2-(4-methoxyphenyl)-6-(4-propan-2-yl-pyrimidin-5-yl)-pyridine-4-carboxamide]",310
17,"Cc1ccc(-c2cc(C(=O)NC(C)(C)C)cc(-c3cncnc3C(C)C)n2)cc1F [Example 16, N-tert-Butyl-2-(3-fluoro-4-methylphenyl)-6-(4-propan-2-yl-pyrimidin-5-yl)-pyridine-4-carboxamide]",250
18,"CCC(C)(C)NC(=O)c1cc(-c2ccc(F)cc2)nc(-c2cncnc2C(C)C)c1 [Example 18, 2-(4-Fluorophenyl)-N-(2-methylbutan-2-yl)-6-(4-propan-2-yl-pyrimidin-5-yl)-pyridine-4-carboxamide]",120
19,"CCc1ncncc1-c1cc(C(=O)NC(C)(C)C)cc(-c2ccc(F)cc2)n1 [Example 19, N-tert-Butyl-2-(4-ethyl-pyrimidin-5-yl)-6-(4-fluorophenyl)-pyridine-4-carboxamide]",180
20,"Cc1ncncc1-c1cc(C(=O)NC(C)(C)C)cc(-c2ccc(F)cc2)n1 [Example 20, N-tert-Butyl-2-(4-fluorophenyl)-6-(4-methylpyrimidin-5-yl)-pyridine-4-carboxamide]",480
21,"CC(C)(C)NC(=O)c1cc(-c2ccc(F)cc2)nc(-c2cncnc2C2CC2)c1 [Example 21, N-tert-Butyl-2-(4-cyclopropylpyrimidin-5-yl)-6-(4-fluorophenyl)-pyridine-4-carboxamide]",560
22,"CC(C)(C)NC(=O)c1cc(-c2ccc(F)cc2)nc(-c2cncnc2C(C)(C)C)c1 [Example 22, N-tert-Butyl-2-(4-tert-butyl-pyrimidin-5-yl)-6-(4-fluorophenyl)-pyridine-4-carboxamide]",63
23,"CC(C)(C)NC(=O)c1cc(-c2ccc(Cl)cc2)nc(-c2cncnc2C(C)(C)C)c1 [Example 23, N-tert-Butyl-2-(4-tert-butylpyrimidin-5-yl)-6-(4-chlorophenyl)-pyridine-4-carboxamide]",140
24,"CC(C)(C)NC(=O)c1cc(-c2ccc(C(F)(F)F)cc2)nc(-c2cncnc2C(C)(C)C)c1 [Example 24, N-tert-Butyl-2-(4-tert-butyl-pyrimidin-5-yl)-6-[4-(trifluoromethyl)-phenyl]-pyridine-4-carboxamide]",290
25,"CC(C)c1ccncc1-c1cc(C(=O)NC(C)(C)C)cc(-c2ccc(C(F)(F)F)cc2)n1 [Example 25, N-tert-Butyl-2-(4-propan-2-yl-pyridin-3-yl)-6-[4-(trifluoromethyl)-phenyl]-pyridine-4-carboxamide]",350
26,"CC(C)c1ccncc1-c1cc(C(=O)NC(C)(C)C)cc(-c2ccc(Cl)cc2)n1 [Example 26, N-tert-Butyl-2-(4-chlorophenyl)-6-(4-propan-2-yl-pyridin-3-yl)-pyridine-4-carboxamide]",310
27,"CC(C)c1ccncc1-c1cc(C(=O)NC(C)(C)C)cc(-c2ccc(F)cc2)n1 [Example 27, N-tert-Butyl-2-(4-fluorophenyl)-6-(4-propan-2-yl-pyridin-3-yl)-pyridine-4-carboxamide]",170

# Test system: not given
# Assay: not given
# Conditions: not given
row,Compound,melting point [°C]
1,"CC(C)c1ncncc1-c1cc(C(=O)NC(C)(C)C)cc(-c2ccc(F)c(F)c2)n1 [Example 7, N-tert-Butyl-2-(3,4-difluorophenyl)-6-(4-propan-2-yl-pyrimidin-5-yl)-pyridine-4-carboxamide]",178
